From patent US20220339110A1, “FAST CONSOLIDATING COMPOUNDS” (Universität Innsbruck, priority 2019, published 2022)

Columns and labels:
Assay type in all cases: physicochemical
[1] = Drug load capacity test of moulded tablets with glass beads (Spheriglass 2429); settings: for Consolidation time / Consolidation time (in words): loaded with glass beads; for time to solid/stable tablets (in words): mixture with Spheriglass 2429 (50 wt % where stated), water
Source text: As model substance for the drug load capacity test, Spheriglass 2429 (glass beads, Potters Europe) was used, because there are no interactions between the glass beads and lactose to exclude other effects. Spheriglass 2429 has a particle size distribution of 53-106 μm. It was mixed with refluxed and sieved Spherolac 100 anhydrate (Spherolac 100 AH) (<250 μm) in a ratio of 30 and 60 wt %. […] The higher the amount of Spheriglass 2429 the less binder solution is needed, because of the decreasing amounts of water binding excipients.
A mixture of 50 wt % anhydrous glucose and 50 wt % Spheriglass 2429 was wetted with a 25 wt % glucose solution and pure water. The aim of this experiment was to investigate if the consolidation time is slowed down by loading a slower solidifying hydrate (in comparison to α-Lactose anhydrate) with a non-matrix-forming substance. […] The advantages of the use of glucose are rather seen as additive to other fast consolidating excipients to improve or modify the consolidation process, its rate, and the properties of the product.

[2] = Moulding process: time to stable tablets (consolidation/solidification time) and liquid amount after wetting the powder; settings: for consolidation/solidification time (in words): wetted with water
Experimental: α-Lactose anhydrate was transferred into wells of a moulding form and wetted with pure water and water/alcohol mixtures, as shown in FIG. 2. Pure water and aqueous EtOH solutions, 25% (v/v) and 50% EtOH (v/v), ratio by volume, were used as solvents. These experiments were performed to measure the time needed for the formation of stable tablets, to determine the optimal amount of solvent, and to determine the optimal water:alcohol ratio in water/alcohol mixtures.
The solidification time (time until the tablets show sufficient hardness for handling) after addition of the solvent was determined using pure water and an aqueous glucose solution. It was observed that the solidification time of anhydrous glucose is much shorter when glucose solutions are applied instead of pure water. Glucose anhydrate solidifies after 10-15 min when water is used but hardens within 2-6 minutes after the application of glucose solutions. The amount of glucose in the solution is less critical for the solidification time, a concentration of 25 wt % is sufficient.
The moulding form tests were carried out with two different solvents: a) water and b) 50% EtOH (v/v) solution.
In a first experiment, tablets with amorphous Ca-L-Lactate (L-CaLac) using pure water were produced.
Wetting partly anhydrous MgSO4 (7 wt % water content) with pure water results in solid tablets. After 5 minutes the tablets can be unbaged from the moulding form. The wettability is not as good as for the α-lactose powders. About 50-60 μl water were added per 100 mg powder. By using a saturated aqueous solution of MgSO4 the hardening time could be halved (2-3 minutes).

[3] = Permanent stability of Na2SO4 tablets with binder in the wetting liquid
Experimental: Attempts were undertaken to ensure the permanent stability of the Na2SO4 (decahydrate) tablets by adding binder polymers to the wetting liquid. Amounts of 5 wt % and 7.5 wt % aqueous PVA 388 solutions were tested. […] The tests show the possibility of a new approach: rapid solidification by hydrate formation and permanent stability through additional binders.

[4] = Disintegration time of lactose tablets
Source text: Mercury porosimetry of the 3D-powder printed tablet indicated a porosity of 63.8% and an average pore radius of 48 Micron. […] Also the tablets produced by the molding process show porosities around 50% whereas those of the pressed tablets are much smaller. The high porosity guarantees a fast intrusion of fluids into the tablet and is thus an important prerequisite of a fast disintegration.

[5] = Mercury intrusion porosimetry of lactose tablets; settings: 3D-powder printed tablet; calculated value
[6] = Tablet hardness, three-point-break tester; settings: 200 mg
Experimental: The tablet hardness was measured with a three-point-break tester by Charles Ischi AG (HC 6.2 50 N).

[7] = Mercury intrusion porosimetry of lactose tablets
Experimental: The porosity, ratio between the sample void volumes and its external volume, of a tablet should be high if a fast disintegration is desired (e.g. for sublingual tablets). Porosity was measured using mercury porosimetry. For a complete mercury intrusion porosimetry (MIP) measurement, two different porosimeter types are needed—a low-pressure porosimeter (LP-MIP) and a high-pressure porosimeter (HP-MIP). As the LP-MIP, Pascal 140 (Thermo Fisher Scientific, I-Milano) was used and the Porosimeter 2000 (Carlo Erba, I-Milano) as the HP-MIP. Pure Spherolac 100 was used for the experiments.

[8] = 50 wt % Spheriglass 2429, 25 wt % glucose solution and pure water
[9] = 5 wt % PVA 388 in 50% EtOH (v/v)
[10] = 7.5 wt % PVA 388 in 50% EtOH (v/v)
[11] = 10 wt % PVA 388 in 50% EtOH (v/v)
[12] = production method: 3D-powder printing
[13] = production method: moulding process
[14] = production method: compaction 10 kN
[15] = production method: compaction 30 kN

Structure (SMILES): C[C@H](O)C(=O)[O-].C[C@H](O)C(=O)[O-].[Ca+2] [Ca-Lactate anhydrate, anhydrous Ca-Lactate]
- solidification time ([1]; 50 wt % Spheriglass 2429, 50% EtOH (v/v) binder solution): ca. 45 min
- Consolidation time ([1]; solvent H2O): 1 to 2 min
- Consolidation time ([2]; solution: water): 1 to 2 min
- consolidation/solidification time (in words) [2]: within one minute

Structure (SMILES): O.O=S(=O)([O-])[O-].O=S(=O)([O-])[O-].[Ca+2].[Ca+2] [Calcium sulphate hemihydrate, reference compound]
- Consolidation time ([2]; solution: water): ca. 35 min

Structure (SMILES): OC[C@H]1OC(O)[C@H](O)[C@@H](O)[C@@H]1O (some centres unmarked) [Glucose anhydrate]
- state of tablets after 10 minutes [1, 8]: still rather soft
- time after which tablets could be removed (in words) [1, 8]: After four minutes
- Consolidation time ([1]; solvent H2O): >10 min
- solidification time ([2]; glucose solutions applied): 2 to 6 min
- Consolidation time ([2]; solution: aqueous glucose solution (25-50 wt %)): 2 to 6 min
- Consolidation time ([2]; solution: water): ca. 10 min
- solidification time ([2]; water): 10 to 15 min

Structure (SMILES): O=C([O-])CC(O)(CC(=O)[O-])C(=O)[O-].O=C([O-])CC(O)(CC(=O)[O-])C(=O)[O-].[Mg+2].[Mg+2].[Mg+2] [Mg Citrate anhydrate, anhydrous Mg Citrate]
- time to stable tablets ([1]; 50% wt Spheriglass 2429, wetting with water): ≥ 10 min
- Consolidation time ([1]; solvent H2O): >10 min
- time to stable tablets ([2]; pure water, with seed crystals of the dodecahydrate (about 2%)): 1 to 4 min
- Consolidation time ([2]; solution: water): 1 to 4 min
- solidification time ([2]; without seed crystals): about 4 min

Structure (SMILES): O=S(=O)([O-])[O-].[Mg+2] [MgSO4 anhydrate]
- Consolidation time (in words) ([1]; solvent H2O): few seconds
- time to solid/stable tablets (in words) [1]: after a few seconds
- Consolidation time (in words) ([2]; solution: water): few seconds
- consolidation/solidification time (in words) [2]: within a few seconds

Structure (SMILES): O=S(=O)([O-])[O-].[Na+].[Na+] [Na2SO4 anhydrate]
- mechanical stability of tablets (in words) ([3]; 7.5 wt % aqueous PVA 388 solution, after drying two and a half days at 22° C. or 40° C.): mechanically stable tablets
- mechanical stability of tablets the next day (in words) ([3]; wetted with 5 wt % aqueous PVA 388 solution): still could be easily crushed
- Consolidation time (in words) ([1]; solvent H2O): few seconds
- time to solid/stable tablets (in words) [1]: within a few seconds
- Consolidation time (in words) ([2]; 50% EtOH (v/v) solution): within one minute
- Consolidation time (in words) ([2]; solution: water): few seconds
- consolidation/solidification time (in words) [2]: within a few seconds

Structure (SMILES): OC[C@H]1O[C@H](OC[C@H]2O[C@H](O[C@]3(CO)O[C@H](CO)[C@@H](O)[C@@H]3O)[C@H](O)[C@@H](O)[C@@H]2O)[C@H](O)[C@@H](O)[C@H]1O [Raffinose anhydrate]
- Consolidation time ([1]; solvent H2O): 2 min
- Consolidation time ([1]; solvent H2O/EtOH 1:1): 4 min
- time to solid/stable tablets (in words) [1]: Two minutes
- time after which tablets could be removed ([1]; with Spheriglass, 50% EtOH (v/v) solution): 2 to 4 min
- Consolidation time (in words) ([2]; 50% EtOH (v/v) solution): about four to five minutes
- Consolidation time (in words) ([2]; solution: water): few seconds
- consolidation/solidification time (in words) [2]: within a few seconds

Structure (SMILES): OC[C@H]1O[C@@H](O[C@H]2[C@H](O)[C@@H](O)[C@@H](O)O[C@@H]2CO)[C@H](O)[C@@H](O)[C@H]1O [Spherolac 100 AH]
- disintegration time (in words) ([4]; printed tablets): few seconds
- calculated porosity [5]: 71.3%
- time to stable tablets after wetting (in words) ([1]; mixed with Spheriglass 2429 at 30 and 60 wt %): within a few seconds
- Average hardness of tablet [6, 9]: 10.45 N
- Average hardness of tablet ([6]; 5 wt % aq. PVA 388): 8.65 N
- Average hardness of tablet [6, 10]: 16.75 N
- Average hardness of tablet ([6]; 7.5 wt % aq. PVA 388): 12.2 N
- Average hardness of tablet [6, 11]: 20.2 N
- Average hardness of tablet ([6]; 10 wt % aq. PVA 388): 14.75 N
- Average hardness of tablet ([6]; binder solution: water): 9.4 N
- Average Pore Radius ([7]; 3D-powder printed tablet): 48 Micron
- porosity (mercury porosimetry) ([7]; 3D-powder printed tablet): 63.8%
- Average Pore Radius [7, 12]: 48 μm
- Porosity [7, 12]: 63.8%
- Average Pore Radius [7, 13]: 2.4 μm
- Porosity [7, 13]: 49%
- Porosity ([7]; tablets produced by the molding process): around 50%

Structure (SMILES): O.OC[C@H]1O[C@@H](O[C@H]2[C@H](O)[C@@H](O)[C@@H](O)O[C@@H]2CO)[C@H](O)[C@@H](O)[C@H]1O [Spherolac 100 MH, α-Lactose monohydrate]
- disintegration time (in words) ([4]; tablets produced at compaction pressure of 30 kN): several minutes
- Average hardness of tablet [6, 9]: 5.85 N
- Average hardness of tablet [6, 10]: 8.1 N
- Average hardness of tablet [6, 11]: 13.1 N
- Average Pore Radius [7, 14]: 0.6 μm
- Porosity [7, 14]: 12%
- Average Pore Radius [7, 15]: 0.2 μm
- Porosity [7, 15]: 5%

Structure (SMILES): OC[C@H]1O[C@@H](O[C@H]2[C@H](O)[C@@H](O)[C@@H](O)O[C@@H]2CO)[C@H](O)[C@@H](O)[C@H]1O [Stable α-Lactose anhydrate]
- Consolidation time (in words) ([1]; solvent H2O): few seconds
- Consolidation time (in words) ([1]; solvent H2O/EtOH 1:1): few seconds
- Consolidation time ([2]; solution: water): 0.083 to 0.167 min
- time to stable tablets ([2]; water/alcohol mixtures (25% and 50% EtOH v/v)): more than 10 seconds
- time to stable tablets ([2]; wetting with pure water): 0.083 to 0.167 min
